By EC50 is commonly meant the concentration needed to bring the measured effect to its halfway point. The low end stands for a more potent agent, the high end for a less potent agent.

Molecules are shown by their SMILES.

T2 sequence (Q9HBA0 whole entry): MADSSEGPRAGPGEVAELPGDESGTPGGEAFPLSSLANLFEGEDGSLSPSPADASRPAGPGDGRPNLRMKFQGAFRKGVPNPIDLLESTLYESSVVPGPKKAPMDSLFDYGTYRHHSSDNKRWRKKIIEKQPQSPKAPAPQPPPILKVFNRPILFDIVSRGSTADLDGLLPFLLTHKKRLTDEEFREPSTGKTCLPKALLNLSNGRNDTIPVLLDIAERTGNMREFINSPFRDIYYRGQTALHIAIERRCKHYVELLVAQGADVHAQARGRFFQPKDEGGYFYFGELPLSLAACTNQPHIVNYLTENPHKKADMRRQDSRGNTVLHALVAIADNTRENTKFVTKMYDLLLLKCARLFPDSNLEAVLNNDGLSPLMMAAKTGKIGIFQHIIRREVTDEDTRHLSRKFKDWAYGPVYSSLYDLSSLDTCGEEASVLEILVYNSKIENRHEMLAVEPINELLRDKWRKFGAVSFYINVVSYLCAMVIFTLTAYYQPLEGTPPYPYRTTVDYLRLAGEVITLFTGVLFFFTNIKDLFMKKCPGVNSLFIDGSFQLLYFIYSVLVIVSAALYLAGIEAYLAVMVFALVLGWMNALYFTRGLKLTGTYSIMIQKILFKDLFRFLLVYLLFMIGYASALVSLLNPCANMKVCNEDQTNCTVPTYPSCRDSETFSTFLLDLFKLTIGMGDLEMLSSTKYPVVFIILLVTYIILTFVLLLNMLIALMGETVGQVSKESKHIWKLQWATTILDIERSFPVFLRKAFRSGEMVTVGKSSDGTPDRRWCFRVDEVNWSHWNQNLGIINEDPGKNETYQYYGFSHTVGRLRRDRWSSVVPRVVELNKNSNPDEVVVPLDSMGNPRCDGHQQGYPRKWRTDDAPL
T1 sequence (A0A8F4X677 1-871): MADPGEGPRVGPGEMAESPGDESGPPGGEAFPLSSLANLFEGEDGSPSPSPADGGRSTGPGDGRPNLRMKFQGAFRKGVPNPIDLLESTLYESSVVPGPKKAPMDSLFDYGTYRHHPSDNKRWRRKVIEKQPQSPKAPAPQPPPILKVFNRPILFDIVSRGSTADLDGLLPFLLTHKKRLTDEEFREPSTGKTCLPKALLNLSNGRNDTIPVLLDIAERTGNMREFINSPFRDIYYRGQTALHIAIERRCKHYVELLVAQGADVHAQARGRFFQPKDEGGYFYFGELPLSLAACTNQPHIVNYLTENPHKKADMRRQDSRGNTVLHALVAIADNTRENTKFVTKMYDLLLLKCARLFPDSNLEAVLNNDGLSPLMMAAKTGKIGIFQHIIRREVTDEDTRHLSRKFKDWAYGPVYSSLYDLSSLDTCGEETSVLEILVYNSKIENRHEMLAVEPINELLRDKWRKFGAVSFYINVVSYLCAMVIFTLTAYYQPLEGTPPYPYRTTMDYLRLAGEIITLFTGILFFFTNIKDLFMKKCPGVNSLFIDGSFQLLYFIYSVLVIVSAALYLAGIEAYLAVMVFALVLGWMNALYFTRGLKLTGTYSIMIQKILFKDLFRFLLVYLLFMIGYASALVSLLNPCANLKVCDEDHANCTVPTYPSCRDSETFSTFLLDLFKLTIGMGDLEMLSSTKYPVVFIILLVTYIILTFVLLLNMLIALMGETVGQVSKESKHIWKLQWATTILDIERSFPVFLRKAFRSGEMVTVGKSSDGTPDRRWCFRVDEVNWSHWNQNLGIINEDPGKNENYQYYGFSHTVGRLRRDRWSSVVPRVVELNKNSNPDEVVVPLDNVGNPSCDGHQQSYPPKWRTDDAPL

The first assay addresses T1, TRPV4 channel receptors (Bos taurus, UniProt A0A8F4X677).
T1 construct: obtained using this method in bovine articular chondrocytes; endogenous in cells; host or cells: bovine articular chondrocytes (primary)
Description: Ca2+ influx, Fura-2 fluorescence on FlexStation in bovine articular chondrocytes. Format: cell-based.
Conditions: not given
An excerpt:
Ca^2+ influx mediated through TRPV4 channel receptors can be measured using articular chondrocytes from such species as, but not limited to, human, rat, canine, rabbit, monkey, and bovine, using standard techniques in the art such as, but not limited to, Fura-2 (Invitrogen/Molecular Probes, Eugene, Oreg.) fluorescence using a FlexStation (manufactured by Molecular Devices, Sunnyvale, Calif.). Table 1 lists biological data for several representative compounds obtained using this method in bovine articular chondrocytes.
(§1) All exemplary compounds of the present invention were assessed using at least one of the biological assays presented above. Compounds presented in the Examples had EC50 values of about 0.01 μM to 30 μM as measured by Flex Station using bovine articular chondrocytes and pEC50 values between about 5.0 to about 7.5 as measured by FLIPR assay using TRPV4 expressing HEK cells.
Regarding `CC[C@H](C)[C@H](NC(=O)c1cc2ccccc2s1)C(=O)NCC1CN(S(=O)(=O)c2ccccc2C#N)CCO1` (stereo partly drawn) [Example 18, N-((1S,2S)-1-{[({4-[(2-cyanophenyl)sulfonyl]-2-morpholinyl}methyl)amino]carbonyl}-2-methylbutyl)-1-benzothiophene-2-carboxamide], the EC50 was greater than 900 nM. With `CC(C)C[C@H](NC(=O)c1cc2ccccc2s1)C(=O)NC[C@@H]1CN(S(=O)(=O)c2ccccc2C#N)CCO1` [Example 21, N-((1S)-1-{[({(2R)-4-[(2-cyanophenyl)sulfonyl]-2-morpholinyl}methyl)amino]carbonyl}-3-methylbutyl)-1-benzothiophene-2-carboxamide], the EC50 lay within 1 to 160 nM. The same measure, in the same setting: then `CC(C)C[C@H](NC(=O)c1cc2ccccc2s1)C(=O)NC[C@H]1CN(S(=O)(=O)c2ccccc2C#N)CCO1` [Example 24, N-((1S)-1-{[({(2S)-4-[(2-cyanophenyl)sulfonyl]-2-morpholinyl}methyl)amino]carbonyl}-3-methylbutyl)-1-benzothiophene-2-carboxamide], with 160 to 900 nM.

Another assay addresses T2, TRPV4 (Homo sapiens, UniProt Q9HBA0).
T2 construct: expressed in transfected cells; host or cells: HEK cells
Put plainly: FLIPR assay using TRPV4 expressing HEK cells. Format: cell-based. As to conditions: FLIPR method; pEC50 = −log10(EC50 μM).
Source text: Other techniques used to measure TRPV4 channel receptor activation in chondrocytes include, but are not limited to: FLIPR assay, measuring a compound's capability to reduce the amount of ADAMTSs produced and/or released in response to a catabolic stimulus by a cell comprising a TRPV4 channel receptor; measuring a compound's capability to reduce the amount of MMPs produced and/or released in response to a catabolic stimulus by a cell comprising a TRPV4 channel receptor; measuring a compound's capability to effect the amount of nitric oxide (NO) produced in response to a catabolic stimulus by a cell comprising a TRPV4 channel receptor; and measuring a compound's capability to attenuate the inhibition of matrix synthesis in response to a catabolic stimulus by a cell comprising a TRPV4 channel receptor.
as §1
`CC(C)[C@H](NC(=O)CCC1CCCC1)C(=O)NCC1CN(S(=O)(=O)c2ccccc2C#N)CCO1` (stereo partly drawn) [Example 44, N1-({4-[(2-cyanophenyl)sulfonyl]-2-morpholinyl}methyl)-N2-(3-cyclopentylpropanoyl)-L-valinamide] gave a concentration for a half-maximal effect (EC50) of 0.1 to 1.12 µM. Consider `O=C(CCC1CCCC1)N[C@H](C(=O)NCC1CN(S(=O)(=O)c2ccc(Cl)cc2Cl)CCO1)c1ccccc1` (stereo partly drawn) [Example 60, 3-cyclopentyl-N-{(1S)-2-[({4-[(2,4-dichlorophenyl)sulfonyl]-2-morpholinyl}methyl)amino]-2-oxo-1-phenylethyl}propanamide], for which the EC50 was 1.12 to 10 µM. Consider `CC(C)C[C@H](NC(=O)c1cc2ccccc2s1)C(=O)NCC1CN(S(=O)(=O)c2ccc(Cl)cc2Cl)CCO1` (stereo partly drawn) [Example 14, N-((1S)-1-{[({4-[(2,4-dichlorophenyl)sulfonyl]-2-morpholinyl}methyl)amino]carbonyl}-3-methylbutyl)-1-benzothiophene-2-carboxamide], for which the 50% effective concentration (EC50) was no more than 0.1 µM.

The values are drawn from US20090124619A1, “NOVEL COMPOUNDS” (priority 2005, published 2009).
